The values below come from article PMC4774534 (Antiviral Research, 2015).

In experiment [1] the test system is SARS-CoV S pseudotyped virus on 293T-ACE2 cells. Format: cell-based. The note with it: read-out: HIV-luc (SARS-CoV S) IC50.
Experiment [2] relates to EBOV pseudotyped virus on 293T-ACE2 cells. The class given is cell-based. Conditions: read-out: HIV-luc (EBOV GP) IC50.
Experiment [3] deals with SARS-CoV Urbani strain in Vero 76 cells. The class given is cell-based. The note with it: read-out: CPE inhibition IC50.
Experiment [4] has as its system SARS-CoV Toronto-2 strain in Vero 76 cells. Format: cell-based. The note with it: read-out: CPE inhibition IC50.
The subject of experiment [5] is SARS-CoV Urbani strain in Vero 76 cells. The class given is cell-based. The note with it: read-out: Neutral red (NR) assay IC50.
The subject of experiment [6] is SARS-CoV Toronto-2 strain in Vero 76 cells. Format: cell-based. Conditions: read-out: Neutral red (NR) assay IC50.
The subject of experiment [7] is SARS-CoV Urbani strain in Vero 76 cells. Format: cell-based. Conditions: read-out: Virus yield reduction IC90.
Experiment [8] concerns replication competent SARS-CoV (Urbani and Toronto-2). Format: cell-based.
For experiment [9], the system named is Ebola pseudovirus on 293T-CD13 cells transiently expressing TMPRSS2. The class given is cell-based, EBOV.
The subject of experiment [10] is VSV-G pseudovirus on 293T-CD13 cells transiently expressing TMPRSS2. The class given is cell-based.
In experiment [11] the test system is SARS-CoV Toronto-2 strain in Vero 76 cells. Format: cell-based. Conditions: read-out: Virus yield reduction IC90.

Structures can show the parent of a compound that is named as a salt. Where two headings read alike, the source gives them in different places.

What is called IC50 is the concentration that inhibits the measured activity by half. Turning to `CCN1CCN(C(=O)N[C@@H](Cc2ccccc2)C(=O)N[C@H](/C=C/S(=O)(=O)c2ccccc2)CCc2ccccc2)CC1` [SMDC-256122, (2S)-N-[(1E,3S)-1-(benzenesulfonyl)-5-phenylpent-1-en-3-yl]-2-{[(E)-4-ethylpiperazine-1-carbonyl]amino}-3-phenylpropanamide], the figures for the IC50 in experiment [1] and in [2] were 0.04 ± 0.01 nM and 0.12 ± 0.01 nM, respectively.
Turning to `CC(C)N1CCN(C(=O)N[C@@H](Cc2ccccc2)C(=O)N[C@H](/C=C/S(=O)(=O)c2ccccc2)CCc2ccccc2)CC1` [SMDC-256123, (2S)-N-[(1E,3S)-1-(benzenesulfonyl)-5-phenylpent-1-en-3-yl]-2-{[(E)-4-(propan-2-yl)piperazine-1-carbonyl]amino}-3-phenylpropanamide], the 50% inhibitory concentration (IC50) was 0.11 ± 0.01 nM in experiment [1] and 0.25 ± 0.07 nM in experiment [2].
`CCCN1CCN(C(=O)N[C@@H](Cc2ccccc2)C(=O)N[C@H](/C=C/S(=O)(=O)c2ccccc2)CCc2ccccc2)CC1` [SMDC-256157, (2S)-N-[(1E,3S)-1-(benzenesulfonyl)-5-phenylpent-1-en-3-yl]-2-{[(E)-4-propylylpiperazine-1-carbonyl]amino}-3-phenylpropanamide]: the values for the IC50 in [1] and in [2] were 0.24 ± 0.03 nM and 0.42 ± 0.03 nM, respectively.
In the case of `O=C(N[C@H](/C=C/S(=O)(=O)c1ccccc1)CCc1ccccc1)[C@H](Cc1ccccc1)NC(=O)N1CCN(c2ccccc2)CC1` [SMDC-256158, (2S)-N-[(1E,3S)-1-(benzenesulfonyl)-5-phenylpent-1-en-3-yl]-2-{[(E)-4-phenylpiperazine-1-carbonyl]amino}-3-phenylpropanamide], the IC50 in experiment [1] was 2.49 ± 0.34 nM; in [2], 2.69 ± 0.43 nM.
The term IC90 denotes the concentration at which the effect reaches the 90% level. With `COCCN1CCN(C(=O)N[C@@H](Cc2ccccc2)C(=O)N[C@H](/C=C/S(=O)(=O)c2ccccc2)CCc2ccccc2)CC1` [SMDC-256159, (2S)-N-[(1E,3S)-1-(benzenesulfonyl)-5-phenylpent-1-en-3-yl]-2-{[(E)-4-(2-methoxyethyl)piperazine-1-carbonyl]amino}-3-phenylpropanamide], the IC50 is 0.07 ± 0.02 nM in experiment [1]; 0.16 ± 0.02 nM in experiment [2]; 650 ± 810 nM in experiment [3]; less than 480 nM in [4]; less than 2260 nM in experiment [5]; 650 nM in experiment [6]. Besides, the IC90 in [7] was 7100 ± 7600 nM. In addition, the “90% reduction in viral yields, range over strains” value in [8] is less than 0.48 to 7.1 µM.
For the compound `O=C(N[C@H](/C=C/S(=O)(=O)c1ccccc1)CCc1ccccc1)[C@H](Cc1ccccc1)NC(=O)N1CCN(C2CCCC2)CC1` [SMDC-256161, (2S)-N-[(1E,3S)-1-(benzenesulfonyl)-5-phenylpent-1-en-3-yl]-2-{[(E)-4-cyclopentylpiperazine-1-carbonyl]amino}-3-phenylpropanamide], the IC50 in experiment [1] is 0.25 ± 0.16 nM; in experiment [2], 0.18 ± 0.01 nM.
On to `O=C(N[C@H](/C=C/S(=O)(=O)c1ccccc1)CCc1ccccc1)[C@H](Cc1ccccc1)NC(=O)N1CCN(CC2CC2)CC1` [SMDC-256162, (2S)-N-[(1E,3S)-1-(benzenesulfonyl)-5-phenylpent-1-en-3-yl]-2-{[(E)-4-(cyclopropylmethyl)piperazine-1-carbonyl]amino}-3-phenylpropanamide], for which the concentration for half-maximal inhibition (IC50) in [1] worked out at 0.16 ± 0.03 nM; in [2], 0.1 ± 0.01 nM.
For the compound `CN(C)C(=O)COC(=O)Cc1ccc(OC(=O)c2ccc(NC(=N)N)cc2)cc1` [camostat, camostat mesylate], the “effect on Ebola pseudovirus infection” value in [9] is “no impact”. Further, in experiment [10], the “effect on VSV-G driven viral entry” value is reported as “no impact”.
As for “(2S)-N-[(1E,3S)-1-(benzenesulfonyl)-5-phenylpent-1-en-3-yl]-2-{[(E)-4-tert-butylpiperazine-1-carbonyl]amino}-3-phenylpropanamide [SMDC-256160]”, the IC50 was 0.08 ± 0.01 nM in [1]; 0.11 ± 0.03 nM in experiment [2]; less than 80 nM in [3]; less than 50 nM in [4]; less than 130 nM in [5]; 320 nM in experiment [6]. In addition, in experiment [8] (read-out: IC50 values, range over strains and readouts), the IC50 fell in the range of 50 to 320 nM. Besides, the values for the 90% effect concentration (IC90) in experiment [7] and in experiment [11] were 490 nM and 12200 nM, respectively. Also, the “90% reduction in viral yields, range over strains” value in experiment [8] fell in the range of 0.49 to 12.2 µM.
